# Data as given in PMC10945559, “Forgotten Natural Products: Semisynthetic Development of Blasticidin S As an Antibiotic Lead” (ACS Medicinal Chemistry Letters, 2024).
# Where two headings read alike, the source gives them in different places.
# How the values were obtained:
# [1] = in vitro; format: cell-based, human; conditions: human; MRC-5 (lung fibroblast); 24 h; one biological replicate (n = 3); read-out: CC50 for human cells
# In short: (§1)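 Human MRC-5 fibroblasts at 5000 cells/well exposed 24 h at 37 °C, 5% CO2 to compound dilutions (4–512 μg/mL; 256 and 512 μg/mL excluded owing to vehicle toxicity) in DMEM/10% FBS, with matched 50% DMSO vehicle dilutions as control. Viability by MTS-type reagent (4 h, A490), media-blank subtracted and normalized to vehicle; CC50 from triplicates.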
# [2] = system: MRC-5 lung fibroblast cells; assay: in vitro; format: cell-based, human; conditions: average of SI (CC50/IC50) over the bacteria tested
# In short: as §1
# [3] = design: method as in PMID 5842139; conditions: cited from earlier work
# [4] = system: Klebsiella pneumoniae ATCC 29665; assay: Broth microdilution antibacterial assay; format: cell-based
# In short: (§2)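 Broth microdilution, cation-adjusted Mueller-Hinton, 37 °C for 16–18 h, OD600 endpoint. MIC means the lowest tested concentration (range 256–2 μg/mL) suppressing growth by more than 90%.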
# [5] = system: Pseudomonas aeruginosa; assay: Broth microdilution antibacterial assay; format: cell-based
# In short: as §2
# [6] = system: Enterococcus faecalis ATCC 29212; assay: Broth microdilution antibacterial assay; format: cell-based
# In short: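 Enterococcus faecalis ATCC 29212 was tested by broth microdilution in polypropylene 96-well flat-bottom plates. Compound stocks at 5.12 mg/mL in 50% DMSO/water were serially diluted, and 10 μL of each dilution was added to 190 μL of culture at OD600 0.004 in cation-adjusted Mueller-Hinton broth. Plates were incubated at 37 °C for 24 h, and OD600 was read to find the MIC.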
# [7] = system: vancomycin-resistant Enterococcus (VRE); assay: Broth microdilution antibacterial assay; format: cell-based
# In short: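 Compounds were prepared as 5.12 mg/mL stocks in 50% DMSO/water and serially diluted. A Bravo liquid handler transferred them into 96-well plates, which then received diluted VRE cultures in cation-adjusted Mueller-Hinton broth. After 24 h at 37 °C, OD600 was normalized to positive and vehicle controls to give MIC and IC50 values from two biological replicates run in duplicate.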
# [8] = system: Staphylococcus aureus ΔNorA; assay: Broth microdilution antibacterial assay; format: cell-based
# In short: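 MIC by broth microdilution in cation-adjusted Mueller-Hinton broth; inoculum OD600 0.004 from mid-log culture; compounds 256–2 μg/mL final; 37 °C, 16–18 h; OD600 read, normalized to positive and vehicle controls; MIC = lowest concentration giving >90% inhibition; two biological replicates in duplicate, reported as range.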
# [9] = system: Acinetobacter baumannii ATCC 17978; assay: Broth microdilution antibacterial assay; format: cell-based
# In short: as §2
# [10] = system: methicillin-resistant S. aureus (MRSA) ATCC 43300; assay: Broth microdilution antibacterial assay; format: cell-based, Staphylococcus aureus
# In short: as §2
# [11] = system: S. aureus 8810; assay: Broth microdilution antibacterial assay; format: cell-based, Staphylococcus aureus
# In short: as §2
# [12] = Klebsiella pneumoniae, ATCC29665
# [13] = Acinetobacter baumannii, ATCC17978
structure (smiles),measurement,setting,value
"CN(CC[C@H](N)CC(=O)N[C@H]1C=C[C@H](n2ccc(N)nc2=O)O[C@@H]1C(=O)O)C(=N)N [Compound 1, blasticidin S]",CC50 at 24 h,[1],20.1 µg/mL
same,average selectivity index,[2],0.4
same,pKa,[3]; primary amine,8.0
same,pKa,[3]; protonated guanidine,> 12.5
same,IC50,[4]; [12],42.3 ± 3.5 µg/mL
same,MIC,[4]; [12],128 µg/mL
same,Selectivity index (CC50/IC50),[4]; MRC-5 CC50 / K. pneumoniae IC50,0.5
same,Selectivity index (CC50/IC50),[5]; MRC-5 CC50 / P. aeruginosa IC50,0.3
same,IC50,[5]; Pseudomonas aeruginosa,61 ± 6 µg/mL
same,MIC,[5]; Pseudomonas aeruginosa,256 µg/mL
same,IC50,"[6]; Enterococcus faecalis, ATCC29212",26.3 ± 13 µg/mL
same,MIC,"[6]; Enterococcus faecalis, ATCC29212, 24 h",32 to 64 µg/mL
same,MIC,"[6]; Enterococcus faecalis, ATCC29212, read-out: Average Activity against E. faecalis",64 µg/mL
same,Selectivity index (CC50/IC50),[6]; MRC-5 CC50 / E. faecalis IC50,0.8
same,IC50,"[7]; Enterococcus, VRE",58 ± 9.4 µg/mL
same,MIC,"[7]; Enterococcus, VRE, 24 h",256 µg/mL
same,MIC,"[7]; Enterococcus, VRE, read-out: Average Activity against VRE",256 µg/mL
same,Selectivity index (CC50/IC50),[7]; MRC-5 CC50 / VRE IC50,0.3
same,Selectivity index (CC50/IC50),[8]; MRC-5 CC50 / S. aureus ΔNorA IC50,0.1
same,IC50,[8]; Staphylococcus aureus,140 ± 8.7 µg/mL
same,MIC,[8]; Staphylococcus aureus,> 256 µg/mL
same,IC50,[9]; [13],104 ± 25 µg/mL
same,MIC,[9]; [13],> 256 µg/mL
same,Selectivity index (CC50/IC50),[9]; MRC-5 CC50 / A. baumannii IC50,0.2
same,Selectivity index (CC50/IC50),[10]; MRC-5 CC50 / MRSA IC50,0.3
same,IC50,[10]; Staphylococcus aureus,59.7 ± 7.8 µg/mL
same,MIC,[10]; Staphylococcus aureus,256 µg/mL
same,MIC,"[10]; Staphylococcus aureus, read-out: Average Activity against MRSA",256 µg/mL
same,Selectivity index (CC50/IC50),[11]; MRC-5 CC50 / S. aureus IC50,0.6
same,IC50,"[11]; Staphylococcus aureus, 8810",33.2 ± 0.8 µg/mL
same,MIC,"[11]; Staphylococcus aureus, 8810",> 256 µg/mL
same,MIC,"[11]; Staphylococcus aureus, 8810, read-out: Average Activity against S. aureus",> 256 µg/mL
